Test results published in patent US20200031793A1, “Synthesis of Thapsigargin, Nortrilobolide, and Analogs Thereof” (priority 2017, published 2020).

Columns and labels:
[1] = test system: sarco/endoplasmic reticulum Ca^2+-ATPases (SERCAs); conditions: cited from earlier work; for inhibition of sarco/endoplasmic reticulum Ca^2+-ATPases (SERCAs): qualitative statement, no own test

`CC1=C2[C@@H]3OC(=O)[C@@](C)(O[Si](C)(C)C)[C@@]3(O)[C@H](OCc3ccccc3)C[C@](C)(O)[C@H]2C[C@H]1O[Si](C)(C)C(C)(C)C` showed a melting point of 176.1 to 178.5 °C.

For `C/C=C(/C)C(=O)O[C@@H]1C[C@H]2C(=C1C)[C@@H]1OC(=O)[C@@](C)(O)[C@@]1(O)[C@@H](OC(=O)CCC)C[C@]2(C)OC(C)=O` [nortrilobolide], the “inhibition of sarco/endoplasmic reticulum Ca^2+-ATPases (SERCAs)” value [1] is given as “potent inhibitor” and the “inhibition of Sarco/endoplasmic reticulum Ca^2+-ATPase compared with thapsigargin (1)” value ([1]; relative to 1 (thapsigargin)) is given as “equipotent inhibition”.

For thapsigargin, the “inhibition of sarco/endoplasmic reticulum Ca^2+-ATPases (SERCAs)” value [1] is listed as “highly selective subnanomolar inhibitor”.
